Assays:
THP-1 = assay: CCK-8 proliferation, THP-1; assay type: cell-based; conditions: Homo sapiens, 72 hours, read-out: Inhibitory activity (IC50) on tumor cell proliferation, THP-1
Description: (§1) The tumor cells used herein were cultured in a cell culture medium listed in table A1 at 37°C in an incubator with 5% CO2. Prior to experimentation, all cell lines used were correctly identified by STR profiling, and tested negative for mycoplasma contamination using a mycoplasma detection kit through routine screenings. Table A1. Tumor cells and cell culture medium used in the present disclosure
(§2) IC50 values of the compounds of the present disclosure (including the compounds in Table 1, and compounds of examples) were measured using the Meilun Cell Counting Kit-8 kit from Dalian Meilun Biotech Co., Ltd. Assay details are as follows: tumor cells were seeded in a 96-well plate at a density listed in Table A2. After 24h, 100 µL of the inoculated cells were treated with 0.5µL of the compounds of the present disclosure (including the compounds in Tables 1 and 2, and compounds of examples) at 10 different successively decreasing concentrations (starting at the highest concentration of 10µM; 5-fold serial dilutions). After the cells were treated with the compounds of the present disclosure for a period of time, the cell viability detection reagent was added to the culture medium for cell viability assessment according to the instructions provided with the CCK-8 kit. […] The growth inhibition of the compounds of the present disclosure on cells was plotted by Prism Graphpad software, and the IC50 values of the compounds of the present disclosure were calculated therefrom. […] Seeding protocol and treatment time for tumor cells

SW620 = assay: CCK-8 proliferation, SW620; assay type: cell-based; conditions: Homo sapiens, SW-620; CCK-8; 96 hours; read-out: Inhibitory activity (IC50) on tumor cell proliferation, SW620
In short: (§3)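 Cells seeded, then after 24 h treated with 10 concentrations (top 10 µM, 5-fold serial dilution) for a line-specific time at 37°C, 5% CO2. Viability read by CCK-8; IC50 fitted from growth-inhibition curves.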

LNcap = assay: CCK-8 proliferation, LNcap; assay type: cell-based; conditions: Homo sapiens, LNCaP; CCK-8; 96 hours; read-out: Inhibitory activity (IC50) on tumor cell proliferation, Lncap
Description: as §1, §2

Jurkat = assay: CCK-8 proliferation, Jurkat; assay type: cell-based, Human; conditions: Homo sapiens, Jurkat; CCK-8; 96 hours; read-out: Inhibitory activity (IC50) on tumor cell proliferation, Jurkat
In short: as §3

TMD8 = assay: CCK-8 proliferation, TMD8; assay type: cell-based; conditions: Homo sapiens, TMD8; CCK-8; 72 hours; read-out: Inhibitory activity (IC50) on tumor cell proliferation, TMD8
Description: as §1, §2

LS174T = assay: CCK-8 proliferation, LS174T; assay type: cell-based; conditions: Homo sapiens, read-out: Inhibitory activity (IC50) on tumor cell proliferation, LS174T
Description: IC50 values of the compounds of the present disclosure (including the compounds in Table 1, and compounds of examples) were measured using the Meilun Cell Counting Kit-8 kit from Dalian Meilun Biotech Co., Ltd. Assay details are as follows: tumor cells were seeded in a 96-well plate at a density listed in Table A2. After 24h, 100 µL of the inoculated cells were treated with 0.5µL of the compounds of the present disclosure (including the compounds in Tables 1 and 2, and compounds of examples) at 10 different successively decreasing concentrations (starting at the highest concentration of 10µM; 5-fold serial dilutions). After the cells were treated with the compounds of the present disclosure for a period of time, the cell viability detection reagent was added to the culture medium for cell viability assessment according to the instructions provided with the CCK-8 kit. […] The growth inhibition of the compounds of the present disclosure on cells was plotted by Prism Graphpad software, and the IC50 values of the compounds of the present disclosure were calculated therefrom. [drawing 1519] Table A2. Seeding protocol and treatment time for tumor cells

CCRF-CEM = assay: CCK-8 proliferation, CCRF-CEM; assay type: cell-based, Human; conditions: Homo sapiens, CCRF-CEM; CCK-8; 96 hours; read-out: Inhibitory activity (IC50) on tumor cell proliferation, CCRF-CEM
In short: as §3

SR = assay: CCK-8 proliferation, SR; assay type: cell-based, Human; conditions: Homo sapiens, SR; CCK-8; 72 hours; read-out: Inhibitory activity (IC50) on tumor cell proliferation, SR
In short: as §3

MM.1R = assay: CCK-8 proliferation, MM.1R; assay type: cell-based; conditions: CCK-8, 72 hours, read-out: Inhibitory activity (IC50) on tumor cell proliferation, MM.1R
In short: as §3

MV-4-11 = assay: CCK-8 proliferation, MV-4-11; assay type: cell-based, Human; conditions: Homo sapiens, MV4-11; CCK-8; 72 or 96 hours; read-out: Inhibitory activity (IC50) on tumor cell proliferation, MV-4-11
In short: as §3

CAL-62 = assay: CCK-8 proliferation, CAL-62; assay type: cell-based; conditions: Homo sapiens, 72 hours, read-out: Inhibitory activity (IC50) on tumor cell proliferation, CAL-62
Description: as §1, §2

H1975 = assay: CCK-8 proliferation, NCI-H1975 (H1975); assay type: cell-based, Human; conditions: Homo sapiens, NCI-H1975; CCK-8; 96 hours; read-out: Inhibitory activity (IC50) on tumor cell proliferation, H1975
In short: as §3

FAK = target: T1, FAK (Homo sapiens, UniProt Q05397); assay: Western blot degradation of FAK; assay type: cell-based; conditions: Table D7
T1 construct: evaluate the effects of the compounds of the present disclosure on the expression of target proteins in cells; endogenous in cells
In short: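 Quantification by ImageJ densitometry of Western blot bands: DC50 is the fitted concentration halving band intensity relative to DMSO. Percent remaining uses internal-control normalization, and degradation rate is its complement.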

[1] = target: T2, human Cereblon WT GST-tagged protein (Homo sapiens, UniProt Q96SW2); assay: CRBN binding, HTRF (CEREBLON BINDING kit); conditions: Table II-2, CRBN binding screening, HTRF
T2 construct: purchased CISBIO 64BDCRBNPEH
In short: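 Competitive HTRF: GST-tagged human WT Cereblon mixed with compound, Thalidomide-Re tracer and GST Eu antibody, incubated 3 h at room temperature. Signals read at 620 and 665 nm.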

T1 sequence (Q05397 whole entry, species assumed): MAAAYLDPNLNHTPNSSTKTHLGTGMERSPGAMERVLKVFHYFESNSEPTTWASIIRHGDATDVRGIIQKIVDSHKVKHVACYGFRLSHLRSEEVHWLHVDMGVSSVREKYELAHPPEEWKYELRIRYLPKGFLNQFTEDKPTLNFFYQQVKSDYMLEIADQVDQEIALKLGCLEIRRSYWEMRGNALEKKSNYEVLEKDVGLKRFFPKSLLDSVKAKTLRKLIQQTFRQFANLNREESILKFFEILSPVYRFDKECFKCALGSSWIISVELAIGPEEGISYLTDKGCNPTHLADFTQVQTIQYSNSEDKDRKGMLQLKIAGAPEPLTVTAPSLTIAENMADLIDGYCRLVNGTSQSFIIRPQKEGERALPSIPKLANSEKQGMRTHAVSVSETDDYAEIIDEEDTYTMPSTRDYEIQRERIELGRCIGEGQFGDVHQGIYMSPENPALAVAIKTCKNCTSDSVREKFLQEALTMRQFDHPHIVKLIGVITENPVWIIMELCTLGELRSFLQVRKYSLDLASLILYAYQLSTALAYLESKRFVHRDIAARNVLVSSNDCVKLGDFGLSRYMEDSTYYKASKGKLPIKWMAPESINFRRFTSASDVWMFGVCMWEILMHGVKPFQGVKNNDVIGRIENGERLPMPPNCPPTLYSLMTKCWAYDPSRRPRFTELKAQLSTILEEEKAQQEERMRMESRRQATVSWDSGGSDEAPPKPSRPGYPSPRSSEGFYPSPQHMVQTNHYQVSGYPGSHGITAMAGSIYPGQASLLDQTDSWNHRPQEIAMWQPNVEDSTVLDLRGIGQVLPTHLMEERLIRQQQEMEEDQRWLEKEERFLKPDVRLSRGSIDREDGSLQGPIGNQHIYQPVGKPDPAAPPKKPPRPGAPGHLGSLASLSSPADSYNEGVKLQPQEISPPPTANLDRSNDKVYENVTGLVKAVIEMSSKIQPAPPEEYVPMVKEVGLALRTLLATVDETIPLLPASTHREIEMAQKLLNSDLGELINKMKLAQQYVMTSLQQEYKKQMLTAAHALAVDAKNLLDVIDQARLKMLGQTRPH
T2 sequence (Q96SW2 whole entry): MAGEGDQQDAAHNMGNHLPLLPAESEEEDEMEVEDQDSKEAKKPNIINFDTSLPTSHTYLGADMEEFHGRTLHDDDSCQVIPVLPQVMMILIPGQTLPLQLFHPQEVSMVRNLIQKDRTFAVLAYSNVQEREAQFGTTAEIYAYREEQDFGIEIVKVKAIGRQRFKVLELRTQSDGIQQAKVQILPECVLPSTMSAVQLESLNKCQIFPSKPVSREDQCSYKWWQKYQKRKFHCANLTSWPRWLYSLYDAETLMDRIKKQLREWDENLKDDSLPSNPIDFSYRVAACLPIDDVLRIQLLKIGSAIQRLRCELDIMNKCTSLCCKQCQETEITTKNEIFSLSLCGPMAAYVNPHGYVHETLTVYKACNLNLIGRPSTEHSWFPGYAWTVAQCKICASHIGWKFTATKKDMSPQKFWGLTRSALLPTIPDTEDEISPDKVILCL

Row | SMILES | IC50 (THP-1) [nM] | IC50 (SW620) [nM] | IC50 (LNcap) [nM] | IC50 (Jurkat) [nM] | IC50 (TMD8) [nM] | IC50 (LS174T) [nM] | IC50 (CCRF-CEM) [nM] | IC50 (SR) [nM] | IC50 (MM.1R) [nM] | IC50 (MV-4-11) [nM] | IC50 (CAL-62) [nM] | IC50 (H1975) [nM] | Degradation of substrate protein FAK (substrate protein remaining %) (FAK) | inhibition at 0.5 µM ([1]; at 0.5µM, read-out: Inhibition rate (%) at 0.5µM) [%] | inhibition at 2 µM ([1]; at 2 µM, read-out: Inhibition rate (%) at 2 µM) [%]
1 | CC1(C)CCC(CN2CCN(c3ccc(C(=O)NS(=O)(=O)c4ccc(NCC5CCOCC5)c([N+](=O)[O-])c4)c(Oc4cnc5[nH]ccc5c4)c3)CC2)=C(c2ccc(Cl)cc2)C1 [ABT-199, Venetoclax, reference compound] | 500 to 1000 | > 10000 | > 10000 | 1000 to 5000 | 1000 to 5000 | > 10000 | 1000 to 5000 | – | – | – | – | – | – | – | –
2 | CC1(C)CCC(c2ccc(Cl)cc2)=C(CN2CCN(c3ccc(C(=O)NS(=O)(=O)c4ccc(N[C@H](CCN5CCOCC5)CSc5ccccc5)c(S(=O)(=O)C(F)(F)F)c4)cc3)CC2)C1 [ABT-263, Navitoclax, reference compound] | 100 to 500 | 500 to 1000 | 1000 to 5000 | 100 to 500 | 1000 to 5000 | 500 to 1000 | 100 to 500 | – | – | – | – | – | – | – | –
3 | CNC(=O)c1ccc(Nc2ncc(C(F)(F)F)c(NCc3nccnc3N(C)S(C)(=O)=O)n2)cc1 [Defactinib, reference compound] | – | 1000 to 5000 | – | 1000 to 5000 | – | – | 1000 to 5000 | 500 to 1000 | 1000 to 5000 | 50 to 100 | 5000 to 10000 | 1000 to 5000 | – | – | –
4 | CNC(=O)c1ccccc1Nc1cc(Nc2ccc(N3CCC(N4CCN(Cc5ccc(C6CCC(=O)NC6=O)c(F)c5)CC4)CC3)cc2OC)ncc1C(F)(F)F (stereo not drawn) [GT-03600, 2-((2-((4-(4-(4-(4-(2,6-dioxopiperidin-3-yl)-3-fluorobenzyl)piperazin-1-yl)piperidin-1-yl)-2-methoxyphenyl)amino)-5-(trifluoromethyl)pyridin-4-yl)amino)-N-methylbenzamide] | – | 50 to 100 | – | – | – | – | 500 to 1000 | 50 to 100 | 500 to 1000 | – | 100 to 500 | 500 to 1000 | A (A is defined as 0% ≤ substrate protein remaining % ≤ 80%) | – | –
5 | CNC(=O)c1ccccc1Nc1cc(Nc2ccc(N3CCC(N(C)Cc4ccc(C5CCC(=O)NC5=O)cc4)CC3)cc2OC)ncc1C(F)(F)F (stereo not drawn) [GT-03733, 2-((2-((4-(4-((4-(2,6-dioxopiperidin-3-yl)benzyl)(methyl)amino)piperidin-1-yl)-2-methoxyphenyl)amino)-5-(trifluoromethyl)pyridin-4-yl)amino)-N-methylbenzamide] | – | 100 to 500 | – | – | – | – | 100 to 500 | 50 to 100 | 500 to 1000 | 100 to 500 | 50 to 100 | 100 to 500 | A (A is defined as 0% ≤ substrate protein remaining % ≤ 80%) | 30 to 40 | 40 to 53
6 | CC1(C)CCC(c2ccc(Cl)cc2)=C(CN2CCN(c3ccc(C(=O)NS(=O)(=O)c4ccc(N[C@H](CCN5CCN(Cc6ccc(C7CCC(=O)NC7=O)cc6)CC5)CSc5ccccc5)c(S(=O)(=O)C(F)(F)F)c4)cc3)CC2)C1 (stereo partly drawn) [GT-04151, 4-(4-((4'-chloro-4,4-dimethyl-3,4,5,6-tetrahydro-[1,1'-biphenyl]-2-yl)methyl)piperazin-1-yl)-N-((4-(((2R)-4-(4-(4-(2,6-dioxopiperidin-3-yl)benzyl)piperazin-1-yl)-1-(phenylthio)butan-2-yl)amino)-3-((trifluoromethyl)sulfonyl)phenyl)sulfonyl)benzamide] | 1 to 10 | 10 to 50 | 10 to 50 | 1 to 10 | 1 to 10 | 50 to 100 | < 1 | – | – | – | – | – | – | – | –
7 | CNC(=O)c1ccccc1Nc1cc(Nc2ccc(N3CCOCC3)cc2OC)ncc1C(F)(F)F [PND-1186, reference compound] | – | – | – | 1000 to 5000 | – | – | 1000 to 5000 | – | 500 to 1000 | 100 to 500 | 1000 to 5000 | – | – | – | –

From EP4678638A1, “NEW E3 UBIQUITIN LIGASE LIGAND, PROTEIN DEGRADATION AGENT AND USE THEREOF” (priority 2023, dated 2024)
